These are literature values, as cited in publication PMC4394704, “Structures and functions of insect arylalkylamine N-acetyltransferase (iaaNAT); a key enzyme for physiological and behavioral switch in arthropods” (Frontiers in Physiology, 2015).

Where two headings read alike, the source gives them in different places.

Usually Km stands for the substrate concentration at which the rate is half of its maximum.

The test system of series [1] is T1, aNAT (acidic aaNAT, NATa).
T1 construct: native, purified from testicular accessory gland; 28 kDa by SDS-PAGE; pH optimum 5-6
The series can be described thus: N-acetyltransferase activity of purified fraction. The note with it: co-substrate acetyl CoA; pH not given. The class given is biochemical, Periplaneta americana. From the text:
N-acetyltransferase activity of purified fraction on aNAT (acidic aaNAT, NATa)

The next series has as its system T2, bNAT (basic aaNAT, NATb).
T2 construct: native, purified from midgut; 28 kDa by SDS-PAGE; pH optimum 9-10
In words: N-acetyltransferase activity of purified fraction. The class given is biochemical, Periplaneta americana. As to conditions: co-substrate acetyl CoA; pH not given. From the text:
N-acetyltransferase activity of purified fraction on bNAT (basic aaNAT, NATb)

In series [2] the target is T3, apaaNAT (aaNAT from A. pernyi) (Antheraea pernyi, UniProt A2SZ52).
T3 construct: cDNA expressed in Sf9 cells by baculovirus
T3 sequence (A2SZ52 1-261): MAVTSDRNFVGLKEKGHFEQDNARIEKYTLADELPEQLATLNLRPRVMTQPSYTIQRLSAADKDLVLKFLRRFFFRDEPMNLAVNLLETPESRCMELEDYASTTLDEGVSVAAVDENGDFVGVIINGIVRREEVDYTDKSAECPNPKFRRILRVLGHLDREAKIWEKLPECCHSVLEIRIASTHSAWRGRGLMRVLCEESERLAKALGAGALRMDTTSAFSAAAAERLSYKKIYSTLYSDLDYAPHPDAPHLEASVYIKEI
In words: N-acetyltransferase activity assay, recombinant enzyme. The format is biochemical. As to conditions: optimal pH 8.0 printed for the enzyme, read-out: apparent Km.

For `NCCc1c[nH]c2ccccc12` [tryptamine], the Michaelis constant (Km) in series [1] was 25 µM; in the series with bNAT (basic aaNAT, NATb), 1330 µM; in series [2] (substrate inhibition above 0.03 mM with 0.11 mM acetyl CoA) it was 3.31 µM. On to `CC(=O)SCCNC(=O)CCNC(=O)[C@H](O)C(C)(C)COP(=O)(O)OP(=O)(O)OC[C@H]1O[C@@H](n2cnc3c(N)ncnc32)[C@H](O)[C@@H]1OP(=O)(O)O` [acetyl CoA], for which the Km in series [2] was 1.42 µM. In the case of `NCCc1ccc(O)cc1` [Tyramine], the Michaelis constant (Km) in series [1] was 28.6 µM; with bNAT (basic aaNAT, NATb), 15.7 µM. On to `NCCc1c[nH]c2ccc(O)cc12` [5HT], for which the Km is 50 µM in series [1] and 325 µM in the series with bNAT (basic aaNAT, NATb).

In the case of `NCCc1ccc(O)c(O)c1` [Dopamine], the Michaelis constant (Km) is 25 µM in series [1] and 1520 µM in the series on bNAT (basic aaNAT, NATb). As to `COc1ccc2[nH]cc(CCN)c2c1` [Methoxy-TN], the Km in series [1] is 25 µM; in the series on bNAT (basic aaNAT, NATb), 200 µM. Regarding `NC[C@H](O)c1ccc(O)cc1` [Octopamine], the Michaelis constant (Km) in series [1] is 20 µM; with bNAT (basic aaNAT, NATb), 385 µM. As for `NC[C@H](O)c1ccc(O)c(O)c1` [Norepinephrine], the Km in series [1] is 28.6 µM.
